Experimental data published in US12139480B2, “5-thiazolecarboxamide kinase inhibitor and uses thereof” (iOmx Therapeutics AG, priority 2018, dated 2024).
Like-named read-outs stand apart in the source and are kept apart here.

Columns and labels:
SIK3 = biological target: T1, SIK3 (Homo sapiens, UniProt Q9Y2K2); experiment: single-point (1 uM) inhibition assay (ProQinase Kinase Profiler); format: biochemical; settings: read-out: % residual activity class (FIG. 3)
T1 construct: purchased ProQinase

p38-alpha = biological target: T2, p38-alpha (Homo sapiens, UniProt Q16539); experiment: as above; format: biochemical; settings: read-out: % residual activity class (FIG. 3)
T2 construct: purchased ProQinase

EPHB1 = biological target: T3, EPHB1 (Homo sapiens, UniProt P54762); experiment: as above; format: biochemical
T3 construct: purchased ProQinase

MDCK-wild type cells = settings: dog
ACV-R1 = biological target: T4, ACV-R1 (Homo sapiens, UniProt Q04771); experiment: single-point (1 uM) inhibition assay (ProQinase Kinase Profiler); format: biochemical; settings: read-out: % residual activity class (FIG. 3)
T4 construct: purchased ProQinase

K562 CML cells = settings: cited from earlier work
RIPK2 = biological target: T5, RIPK2 (Homo sapiens, UniProt O43353); experiment: single-point (1 uM) inhibition assay (ProQinase Kinase Profiler); format: biochemical; settings: 1 uM compound, read-out: % residual activity class (FIG. 3)
T5 construct: purchased ProQinase

DDR2 = biological target: T6, DDR2 (Homo sapiens, UniProt Q16832); experiment: as above; format: biochemical; settings: 1 uM compound, read-out: % residual activity class (FIG. 3)
T6 construct: purchased ProQinase, Freiburg, Germany (Kinase Profiler panel)

PDGFR-alpha = biological target: T7, PDGFR-alpha (Homo sapiens, UniProt P16234); experiment: as above; format: biochemical; settings: read-out: % residual activity class (FIG. 3)
T7 construct: purchased ProQinase

RET = biological target: T8, RET (Homo sapiens, UniProt P07949); experiment: as above; format: biochemical
T8 construct: purchased ProQinase, Freiburg, Germany (Kinase Profiler panel)

MAP4K5 = biological target: T9, MAP4K5 (Homo sapiens, UniProt Q9Y4K4); experiment: as above; format: biochemical; settings: read-out: % residual activity class (FIG. 3)
T9 construct: purchased ProQinase

ACV-R1B = biological target: T10, ACV-R1B (Homo sapiens, UniProt P36896); experiment: as above; format: biochemical; settings: read-out: % residual activity class (FIG. 3)
T10 construct: purchased ProQinase

ZAK = biological target: T11, ZAK (Homo sapiens, UniProt Q9NYL2); experiment: as above; format: biochemical; settings: 1 uM compound, read-out: % residual activity class (FIG. 3)
T11 construct: purchased ProQinase

BLK = biological target: T12, BLK (Homo sapiens, UniProt P51451); experiment: as above; format: biochemical; settings: 1 uM compound, read-out: % residual activity class (FIG. 3)
T12 construct: purchased ProQinase

HCK = biological target: T13, HCK (Homo sapiens, UniProt P08631); experiment: as above; format: biochemical; settings: 1 uM compound, read-out: % residual activity class (FIG. 3)
T13 construct: purchased ProQinase

ABL2 = biological target: T14, ABL2 (Homo sapiens, UniProt P42684); experiment: as above; format: biochemical; settings: 1 uM compound, read-out: % residual activity class (FIG. 3)
T14 construct: purchased ProQinase

FYN = FYN (Homo sapiens, UniProt P06241); experiment: as above; settings: read-out: % residual activity class (FIG. 3)
PDGFR-beta = biological target: T15, PDGFR-beta (Homo sapiens, UniProt P09619); experiment: biochemical
T15 construct: purchased ProQinase

TXK = biological target: T16, TXK (Homo sapiens, UniProt P42681); experiment: single-point (1 uM) inhibition assay (ProQinase Kinase Profiler); format: biochemical; settings: 1 uM compound, read-out: % residual activity class (FIG. 3)
T16 construct: purchased ProQinase

EPHB2 = biological target: T17, EPHB2 (Homo sapiens, UniProt P29323); experiment: as above; format: biochemical; settings: read-out: % residual activity class (FIG. 3)
T17 construct: purchased ProQinase

NLK = biological target: T18, NLK (Homo sapiens, UniProt Q9UBE8); experiment: as above; format: biochemical; settings: 1 uM compound, read-out: % residual activity class (FIG. 3)
T18 construct: purchased ProQinase

SIK1 = biological target: T19, SIK1 (Homo sapiens, UniProt P57059); experiment: as above; format: biochemical; settings: read-out: % residual activity class (FIG. 3)
T19 construct: purchased ProQinase

ACK1 = biological target: T20, ACK1 (Homo sapiens, UniProt Q07912); experiment: as above; format: biochemical; settings: 1 uM compound, read-out: % residual activity class (FIG. 3)
T20 construct: purchased ProQinase

CSK = biological target: T21, CSK (Homo sapiens, UniProt P41240); experiment: as above; format: biochemical; settings: 1 uM compound, read-out: % residual activity class (FIG. 3)
T21 construct: purchased ProQinase

TEC = biological target: T22, TEC (Homo sapiens, UniProt P42680); experiment: as above; format: biochemical; settings: 1 uM compound, read-out: % residual activity class (FIG. 3)
T22 construct: purchased ProQinase

FRK = biological target: T23, FRK (Homo sapiens, UniProt P42685); experiment: as above; format: biochemical; settings: 1 uM compound, read-out: % residual activity class (FIG. 3)
T23 construct: purchased ProQinase

SIK2 = biological target: T24, SIK2 (Homo sapiens, UniProt Q9H0K1); experiment: as above; format: biochemical; settings: read-out: % residual activity class (FIG. 3)
T24 construct: purchased ProQinase

ACV-RL1 = biological target: T25, ACV-RL1 (Homo sapiens, UniProt P37023); experiment: as above; format: biochemical; settings: 1 uM compound, read-out: % residual activity class (FIG. 3)
T25 construct: purchased ProQinase

LYN = biological target: T26, LYN (Homo sapiens, UniProt P07948); experiment: as above; format: biochemical; settings: 1 uM compound, read-out: % residual activity class (FIG. 3)
T26 construct: purchased ProQinase

MDCK-MDR1 cells = settings: dog
SRMS = biological target: T27, SRMS (Homo sapiens, UniProt Q9H3Y6); experiment: single-point (1 uM) inhibition assay (ProQinase Kinase Profiler); format: biochemical; settings: 1 uM compound, read-out: % residual activity class (FIG. 3)
T27 construct: purchased ProQinase

EPHA3 = biological target: T28, EPHA3 (Homo sapiens, UniProt P29320); experiment: as above; format: biochemical
T28 construct: purchased ProQinase

FGR = biological target: T29, FGR (Homo sapiens, UniProt P09769); experiment: as above; format: biochemical; settings: 1 uM compound, read-out: % residual activity class (FIG. 3)
T29 construct: purchased ProQinase

[1] = human liver microsomal stability; format: in vitro ADME
EPHB4 = biological target: T30, EPHB4 (Homo sapiens, UniProt P54760); experiment: biochemical
T30 construct: purchased ProQinase

YES = biological target: T31, YES (Homo sapiens, UniProt P07947); experiment: single-point (1 uM) inhibition assay (ProQinase Kinase Profiler); format: biochemical; settings: 1 uM compound, read-out: % residual activity class (FIG. 3)
T31 construct: purchased ProQinase

WNK2 = WNK2 (Homo sapiens, UniProt Q9Y3S1); experiment: biochemical; settings: read-out: Residual activity (%) at 1 uM
TGFB-R1 = biological target: T32, TGFB-R1 (Homo sapiens, UniProt P36897); experiment: single-point (1 uM) inhibition assay (ProQinase Kinase Profiler); format: biochemical; settings: 1 uM compound, read-out: % residual activity class (FIG. 3)
T32 construct: purchased ProQinase

EPHA5 = biological target: T33, EPHA5 (Homo sapiens, UniProt P54756); experiment: as above; format: biochemical
T33 construct: purchased ProQinase

CSF1-R = biological target: T34, CSF1-R (Homo sapiens, UniProt P07333); experiment: as above; format: biochemical; settings: 1 uM compound, read-out: % residual activity class (FIG. 3)
T34 construct: purchased ProQinase

[2] = read-out: % residual activity class (FIG. 3)
[3] = read-out: Residual activity (%) at 1 uM, RET
[4] = PDGFR-beta, 1 uM compound, read-out: % residual activity class (FIG. 3)
[5] = read-out: Residual activity (%) at 1 uM

T28 sequence (P29320 21-983): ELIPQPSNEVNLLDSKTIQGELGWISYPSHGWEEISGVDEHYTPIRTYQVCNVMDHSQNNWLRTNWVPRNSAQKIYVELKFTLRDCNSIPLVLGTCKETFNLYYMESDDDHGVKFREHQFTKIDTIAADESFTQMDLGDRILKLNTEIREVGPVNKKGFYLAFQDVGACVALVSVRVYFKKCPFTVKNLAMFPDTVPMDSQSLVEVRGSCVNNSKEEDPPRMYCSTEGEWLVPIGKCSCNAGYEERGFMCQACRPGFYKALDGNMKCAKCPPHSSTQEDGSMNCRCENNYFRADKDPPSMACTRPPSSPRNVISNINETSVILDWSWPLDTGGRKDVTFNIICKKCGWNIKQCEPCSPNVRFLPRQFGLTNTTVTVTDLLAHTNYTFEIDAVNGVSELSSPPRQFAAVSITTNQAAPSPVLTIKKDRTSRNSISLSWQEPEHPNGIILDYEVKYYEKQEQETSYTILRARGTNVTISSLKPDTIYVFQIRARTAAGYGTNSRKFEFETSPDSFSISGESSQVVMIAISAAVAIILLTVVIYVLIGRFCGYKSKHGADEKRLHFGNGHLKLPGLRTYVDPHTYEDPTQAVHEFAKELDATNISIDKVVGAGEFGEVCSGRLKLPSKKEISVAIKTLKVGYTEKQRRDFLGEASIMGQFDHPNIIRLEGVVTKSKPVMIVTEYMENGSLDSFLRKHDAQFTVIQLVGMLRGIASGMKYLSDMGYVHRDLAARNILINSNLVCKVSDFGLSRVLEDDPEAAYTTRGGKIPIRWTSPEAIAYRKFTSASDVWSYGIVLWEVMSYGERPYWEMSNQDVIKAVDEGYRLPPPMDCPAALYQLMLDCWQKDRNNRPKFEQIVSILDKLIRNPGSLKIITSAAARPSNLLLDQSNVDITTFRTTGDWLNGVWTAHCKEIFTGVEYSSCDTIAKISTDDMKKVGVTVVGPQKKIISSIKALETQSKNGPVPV
T8 sequence (P07949 29-1114): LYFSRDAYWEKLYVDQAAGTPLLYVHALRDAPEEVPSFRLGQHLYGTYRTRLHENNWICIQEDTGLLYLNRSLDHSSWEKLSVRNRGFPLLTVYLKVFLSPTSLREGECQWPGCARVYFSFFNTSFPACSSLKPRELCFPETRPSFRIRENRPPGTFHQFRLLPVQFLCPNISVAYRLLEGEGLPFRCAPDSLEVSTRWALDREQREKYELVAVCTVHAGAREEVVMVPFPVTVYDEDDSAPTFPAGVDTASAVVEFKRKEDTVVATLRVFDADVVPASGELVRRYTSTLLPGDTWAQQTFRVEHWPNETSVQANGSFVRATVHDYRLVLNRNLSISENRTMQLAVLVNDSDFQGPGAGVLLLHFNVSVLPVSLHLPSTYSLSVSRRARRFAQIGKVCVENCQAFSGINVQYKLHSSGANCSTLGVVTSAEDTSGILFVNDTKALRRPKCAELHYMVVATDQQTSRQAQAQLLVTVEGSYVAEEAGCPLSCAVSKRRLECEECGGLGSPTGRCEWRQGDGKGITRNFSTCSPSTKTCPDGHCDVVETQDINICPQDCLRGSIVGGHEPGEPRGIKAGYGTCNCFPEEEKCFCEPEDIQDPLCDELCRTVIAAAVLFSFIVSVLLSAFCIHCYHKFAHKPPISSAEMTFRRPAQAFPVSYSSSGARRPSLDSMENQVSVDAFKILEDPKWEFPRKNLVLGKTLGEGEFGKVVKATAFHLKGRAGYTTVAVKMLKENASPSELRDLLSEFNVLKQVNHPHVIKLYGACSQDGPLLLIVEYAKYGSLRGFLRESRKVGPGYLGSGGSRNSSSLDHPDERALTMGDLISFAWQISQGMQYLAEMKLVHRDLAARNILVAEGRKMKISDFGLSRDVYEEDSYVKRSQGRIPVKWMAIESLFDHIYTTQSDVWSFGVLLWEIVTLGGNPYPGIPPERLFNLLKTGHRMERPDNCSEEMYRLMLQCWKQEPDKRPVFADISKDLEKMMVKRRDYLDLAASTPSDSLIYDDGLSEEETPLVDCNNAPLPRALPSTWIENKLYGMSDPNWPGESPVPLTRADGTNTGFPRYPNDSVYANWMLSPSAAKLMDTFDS
T15 sequence (P09619 33-1106): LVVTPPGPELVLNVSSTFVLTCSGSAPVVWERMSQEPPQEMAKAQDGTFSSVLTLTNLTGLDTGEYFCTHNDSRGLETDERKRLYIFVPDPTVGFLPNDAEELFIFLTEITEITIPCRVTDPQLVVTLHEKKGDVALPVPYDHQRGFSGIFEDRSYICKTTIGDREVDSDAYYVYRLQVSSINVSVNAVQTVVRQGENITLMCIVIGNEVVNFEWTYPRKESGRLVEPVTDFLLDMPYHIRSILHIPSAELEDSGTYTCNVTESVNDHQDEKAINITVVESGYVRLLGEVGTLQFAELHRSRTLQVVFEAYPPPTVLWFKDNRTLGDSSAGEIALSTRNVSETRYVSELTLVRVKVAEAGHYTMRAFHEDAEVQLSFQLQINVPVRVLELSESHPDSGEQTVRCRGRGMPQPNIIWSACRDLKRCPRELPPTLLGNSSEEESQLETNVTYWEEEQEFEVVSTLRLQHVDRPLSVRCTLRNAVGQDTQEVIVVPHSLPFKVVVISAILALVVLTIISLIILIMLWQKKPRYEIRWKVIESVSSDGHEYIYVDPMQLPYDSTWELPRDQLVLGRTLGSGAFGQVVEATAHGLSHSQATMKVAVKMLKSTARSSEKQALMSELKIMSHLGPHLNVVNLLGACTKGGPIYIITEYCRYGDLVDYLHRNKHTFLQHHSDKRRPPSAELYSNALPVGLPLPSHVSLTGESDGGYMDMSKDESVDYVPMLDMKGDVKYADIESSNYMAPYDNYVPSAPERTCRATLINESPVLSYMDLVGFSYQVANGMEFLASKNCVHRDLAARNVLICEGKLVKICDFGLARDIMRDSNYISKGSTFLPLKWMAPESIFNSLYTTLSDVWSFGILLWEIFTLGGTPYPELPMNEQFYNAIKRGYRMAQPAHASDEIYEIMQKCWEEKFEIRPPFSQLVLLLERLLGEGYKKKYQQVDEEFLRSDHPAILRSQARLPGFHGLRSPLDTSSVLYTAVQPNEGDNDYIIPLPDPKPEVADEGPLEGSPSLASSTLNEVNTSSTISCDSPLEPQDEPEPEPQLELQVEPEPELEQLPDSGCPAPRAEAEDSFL
T3 sequence (P54762 18-984): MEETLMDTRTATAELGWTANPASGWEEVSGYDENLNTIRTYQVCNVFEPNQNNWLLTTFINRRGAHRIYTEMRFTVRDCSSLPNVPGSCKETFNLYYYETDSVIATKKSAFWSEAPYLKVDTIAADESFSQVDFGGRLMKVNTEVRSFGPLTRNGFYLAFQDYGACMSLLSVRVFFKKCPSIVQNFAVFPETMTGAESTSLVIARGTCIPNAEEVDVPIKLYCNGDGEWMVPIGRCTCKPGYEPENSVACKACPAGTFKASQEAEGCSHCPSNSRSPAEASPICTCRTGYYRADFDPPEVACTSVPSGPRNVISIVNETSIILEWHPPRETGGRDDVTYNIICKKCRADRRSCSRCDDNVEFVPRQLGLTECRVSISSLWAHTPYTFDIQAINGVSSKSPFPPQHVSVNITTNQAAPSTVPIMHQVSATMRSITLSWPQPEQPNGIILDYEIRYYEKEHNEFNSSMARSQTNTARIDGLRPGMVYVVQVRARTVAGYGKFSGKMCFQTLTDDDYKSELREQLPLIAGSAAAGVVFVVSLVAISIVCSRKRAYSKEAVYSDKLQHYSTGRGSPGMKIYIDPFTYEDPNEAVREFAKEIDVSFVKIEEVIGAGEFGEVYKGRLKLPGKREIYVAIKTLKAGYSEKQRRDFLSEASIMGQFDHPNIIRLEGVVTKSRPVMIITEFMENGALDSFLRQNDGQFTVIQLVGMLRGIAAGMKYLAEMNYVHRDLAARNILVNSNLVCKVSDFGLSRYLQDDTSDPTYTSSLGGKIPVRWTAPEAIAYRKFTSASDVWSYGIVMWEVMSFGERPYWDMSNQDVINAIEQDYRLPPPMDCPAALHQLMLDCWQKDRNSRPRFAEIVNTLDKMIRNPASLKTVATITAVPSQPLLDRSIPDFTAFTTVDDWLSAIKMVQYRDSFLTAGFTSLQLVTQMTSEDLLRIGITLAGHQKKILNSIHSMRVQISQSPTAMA
T23 sequence (P42685 whole entry): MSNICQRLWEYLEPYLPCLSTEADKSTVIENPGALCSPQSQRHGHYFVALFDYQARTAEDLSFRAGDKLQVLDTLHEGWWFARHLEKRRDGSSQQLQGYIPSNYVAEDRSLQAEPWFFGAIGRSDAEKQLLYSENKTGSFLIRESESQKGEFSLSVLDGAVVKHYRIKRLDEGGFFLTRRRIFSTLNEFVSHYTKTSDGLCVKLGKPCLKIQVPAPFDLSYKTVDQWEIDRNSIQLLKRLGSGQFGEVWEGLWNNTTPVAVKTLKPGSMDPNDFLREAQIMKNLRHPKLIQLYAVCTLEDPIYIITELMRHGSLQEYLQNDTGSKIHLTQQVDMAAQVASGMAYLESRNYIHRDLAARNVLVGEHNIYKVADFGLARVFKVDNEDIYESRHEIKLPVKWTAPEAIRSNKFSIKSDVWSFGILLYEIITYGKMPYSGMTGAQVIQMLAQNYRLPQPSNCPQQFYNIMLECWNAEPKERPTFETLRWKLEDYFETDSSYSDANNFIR
T2 sequence (Q16539 whole entry): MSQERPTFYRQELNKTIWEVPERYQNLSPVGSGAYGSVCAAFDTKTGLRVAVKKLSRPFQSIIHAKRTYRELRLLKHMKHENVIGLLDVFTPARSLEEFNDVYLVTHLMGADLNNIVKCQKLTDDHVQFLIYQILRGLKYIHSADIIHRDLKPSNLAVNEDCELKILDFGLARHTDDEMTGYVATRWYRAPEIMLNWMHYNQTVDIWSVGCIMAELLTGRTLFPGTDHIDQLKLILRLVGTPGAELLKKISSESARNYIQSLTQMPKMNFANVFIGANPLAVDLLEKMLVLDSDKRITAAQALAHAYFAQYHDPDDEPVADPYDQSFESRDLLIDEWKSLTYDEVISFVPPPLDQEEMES

Cc1nc(Nc2ncc(C(=O)Nc3c(C)cccc3Cl)s2)cc(N2CCN(CCO)CC2)n1 [Compound A8, N-(2-chloro-6-methylphenyl)-2-((6-(4-(2-hydroxyethyl)piperazin-1-yl)-2-methylpyrimidin-4-yl)amino)thiazole-5-carboxamide, reference compound]
remaining activity at 1 µM (SIK3; SIK3, 1 uM compound): < 25% | remaining activity at 1 µM (p38-alpha; p38-alpha, 1 uM compound): < 25% | remaining activity at 1 µM (EPHB1; [2]): < 25% | Mean Papp A > B (MDCK-wild type cells): 21 | remaining activity at 1 µM (ACV-R1; ACV-R1, 1 uM compound): < 25% | survival (K562 CML cells; 10 mg/kg/day): increased survival | survival / intracranial tumour growth (K562 CML cells; similar study, dasatinib 10 and 30 mg/kg/day, imatinib 200 mg/kg/day): increased survival | remaining activity at 1 µM (RIPK2): < 25% | remaining activity at 1 µM (DDR2): < 25% | remaining activity at 1 µM (PDGFR-alpha): < 25% | Residual activity (%) at 1 uM (RET; RET, 1 µM): 39% | remaining activity at 1 µM (RET; RET, 1 uM compound, read-out: % residual activity class (FIG. 3)): 25 to 50% | remaining activity at 1 µM (RET; [3]): < 40% | remaining activity at 1 µM (MAP4K5; MAP4K5, 1 uM compound): < 25% | remaining activity at 1 µM (ACV-R1B; ACV-R1B, 1 uM compound): < 25% | remaining activity at 1 µM (ZAK): < 25% | remaining activity at 1 µM (BLK): < 25% | remaining activity at 1 µM (HCK): < 25% | remaining activity at 1 µM (ABL2): < 25% | remaining activity at 1 µM (FYN): < 25% | remaining activity at 1 µM (PDGFR-beta; [4]): < 25% | remaining activity at 1 µM (PDGFR-beta; [5]): 2% | remaining activity at 1 µM (TXK): < 25% | remaining activity at 1 µM (EPHB2; EPHB2, 1 uM compound): < 25% | remaining activity at 1 µM (NLK): < 25% | remaining activity at 1 µM (SIK1; SIK1, 1 uM compound): < 25% | remaining activity at 1 µM (ACK1): < 25% | remaining activity at 1 µM (CSK): < 25% | remaining activity at 1 µM (TEC): < 25% | remaining activity at 1 µM (FRK): < 25% | remaining activity at 1 µM (SIK2; SIK2, 1 uM compound): < 25% | remaining activity at 1 µM (ACV-RL1): < 25% | remaining activity at 1 µM (LYN): < 25% | Mean Papp A > B (MDCK-MDR1 cells): 2.4 | remaining activity at 1 µM (SRMS): < 25% | remaining activity at 1 µM (EPHA3; EPHA3, 1 uM compound, read-out: % residual activity class (FIG. 3)): < 25% | remaining activity at 1 µM (FGR): < 25%

Cc1nc(Nc2ncc(C(=O)Nc3c(Cl)ccnc3C)s2)cc(N2CCN(CCO)CC2)n1 [Compound B3, N-(4-chloro-2-methylpyridin-3-yl)-2-((6-(4-(2-hydroxyethyl)piperazin-1-yl)-2-methylpyrimidin-4-yl)amino)thiazole-5-carboxamide]
remaining activity at 1 µM (SIK3): < 25% | remaining activity at 1 µM (p38-alpha): 25 to 50% | remaining activity at 1 µM (EPHB1; [2]): < 25% | remaining activity at 1 µM (EPHB1; [5]): 0% | Half-life [1]: 58 min | Mean recovery B > A (MDCK-wild type cells): 120% | remaining activity at 1 µM (ACV-R1): 25 to 50% | remaining activity at 1 µM (RIPK2): < 25% | remaining activity at 1 µM (EPHB4; EPHB4, 1 uM compound, read-out: % residual activity class (FIG. 3)): < 25% | remaining activity at 1 µM (EPHB4; [5]): 1% | remaining activity at 1 µM (YES): < 25% | remaining activity at 1 µM (DDR2): < 25% | remaining activity at 1 µM (PDGFR-alpha): < 25% | remaining activity at 1 µM (RET; [3]): ~100% | remaining activity at 1 µM (MAP4K5): 25 to 50% | remaining activity at 1 µM (ACV-R1B): 25 to 50% | remaining activity at 1 µM (ZAK): < 25% | remaining activity at 1 µM (WNK2): 100% | remaining activity at 1 µM (BLK): < 25% | remaining activity at 1 µM (HCK): < 25% | remaining activity at 1 µM (ABL2): < 25% | remaining activity at 1 µM (FYN): < 25% | remaining activity at 1 µM (TGFB-R1): 25 to 50% | remaining activity at 1 µM (PDGFR-beta; [4]): < 25% | remaining activity at 1 µM (PDGFR-beta; [5]): 6% | remaining activity at 1 µM (TXK): < 25% | remaining activity at 1 µM (EPHB2): < 25% | remaining activity at 1 µM (NLK): 25 to 50% | remaining activity at 1 µM (SIK1): < 25% | remaining activity at 1 µM (ACK1): < 25% | remaining activity at 1 µM (CSK): < 25% | remaining activity at 1 µM (TEC): < 25% | remaining activity at 1 µM (FRK): < 25% | remaining activity at 1 µM (EPHA5; [2]): < 25% | remaining activity at 1 µM (EPHA5; [5]): 1% | remaining activity at 1 µM (SIK2): < 25% | remaining activity at 1 µM (CSF1-R): < 25% | remaining activity at 1 µM (ACV-RL1): 25 to 50% | remaining activity at 1 µM (LYN): < 25% | Mean recovery A > B (MDCK-MDR1 cells): 93% | remaining activity at 1 µM (SRMS): 25 to 50% | remaining activity at 1 µM (EPHA3; [2]): < 25% | remaining activity at 1 µM (EPHA3; [5]): 0% | remaining activity at 1 µM (FGR): < 25%
